Results taken from patent US20250228239A1, “MOLECULES HAVING PESTICIDAL UTILITY, AND INTERMEDIATES, COMPOSITIONS, AND PROCESSES, RELATED THERETO” (priority 2024, published 2025).

Key:
[1] = test system: Beet Armyworm (Spodoptera exigua, LAPHEG); assay: Bioassays on Beet Armyworm (BAW), 128-well diet tray assay; format: in vivo; conditions: Spodoptera exigua; Table ABC: Biological Results; species BAW; read-out: BAW
Method: (§1) Certain molecules disclosed in this document were tested against BAW and CL using procedures described in the following examples. In the reporting of the results, the “BAW & CL Rating Table” was used (See Table Section).
Bioassays on BAW were conducted using a 128-well diet tray assay. One to five second instar BAW larvae were placed in each well (3 mL) of the diet tray that had been previously filled with 1 mL of artificial diet to which 50 μg/cm^2 of the test molecule (dissolved in 50 μL of 90:10 acetone-water mixture) had been applied (to each of eight wells) and then allowed to dry. Trays were covered with a clear self-adhesive cover, vented to allow gas exchange, and held at 25° C., 14:10 light-dark for five to seven days. Percent mortality was recorded for the larvae in each well; activity in the eight wells was then averaged. The results are indicated in the table entitled “Table ABC: Biological Results” (See Table Section).

[2] = test system: Cabbage Looper (Trichoplusia ni, TRIPNI); assay: Bioassays on Cabbage Looper (CL), 128-well diet tray assay; format: in vivo; conditions: Trichoplusia ni; Table ABC: Biological Results; species CL; read-out: CL
Method: as §1
Bioassays on CL were conducted using a 128-well diet tray assay. One to five second instar CL larvae were placed in each well (3 mL) of the diet tray that had been previously filled with 1 mL of artificial diet to which 50 μg/cm^2 of the test molecule (dissolved in 50 μL of 90:10 acetone-water mixture) had been applied (to each of eight wells) and then allowed to dry. Trays were covered with a clear self-adhesive cover, vented to allow gas exchange, and held at 25° C., 14:10 light-dark for five to seven days. Percent mortality was recorded for the larvae in each well; activity in the eight wells was then averaged. The results are indicated in the table entitled “Table ABC: Biological Results” (See Table Section).

Row | Structure (SMILES) | pest or weed control at 50 µg/cm2 [1] | pest or weed control at 50 µg/cm2 [2]
1 | CC(C)(C)OC(=O)Nc1c(F)ccc(NC(=O)c2cc(NC(=O)[C@H]3[C@H](c4cc(Br)cc(C(F)(F)F)c4)C3(Cl)Cl)ccc2Cl)c1F (relative stereo) [F1073, trans-tert-Butyl-(3-(5-(3-(3-bromo-5-(trifluoromethyl)phenyl)-2,2-dichlorocyclopropane-1-carboxamido)-2-chlorobenzamido)-2,6-difluorophenyl)carbamate] | 50 to 100% | 50 to 100%
2 | Nc1c(F)ccc(NC(=O)c2cc(NC(=O)[C@H]3[C@H](c4cc(Cl)cc(Cl)c4)C3(F)F)ccc2Cl)c1F (relative stereo) [F1080, trans-N-(3-Amino-2,4-difluorophenyl)-2-chloro-5-(3-(3,5-dichlorophenyl)-2,2-difluorocyclopropane-1-carboxamido)benzamide] | 50 to 100% | 50 to 100%
3 | O=C(Nc1ccc(F)cc1F)c1c(F)ccc(NC(=O)[C@H]2[C@H](c3ccc(F)c(Cl)c3)C2(Cl)Cl)c1F (relative stereo) [F1086, trans-3-(2,2-Dichloro-3-(3-chloro-4-fluorophenyl)cyclopropane-1-carboxamido)-N-(2,4-difluorophenyl)-2,6-difluorobenzamide] | 50 to 100% | 50 to 100%
4 | CC(C)(C)OC(=O)Nc1c(F)ccc(NC(=O)c2cc(NC(=O)[C@H]3[C@H](c4cc(F)cc(C(F)(F)F)c4)C3(Cl)Cl)ccc2Cl)c1F (relative stereo) [F1092, trans-tert-Butyl-(3-(2-chloro-5-(2,2-dichloro-3-(3-fluoro-5-(trifluoromethyl)phenyl)cyclopropane-1-carboxamido)benzamido)-2,6-difluorophenyl)carbamate] | 50 to 100% | 50 to 100%
5 | O=C(Nc1ccc(F)cc1F)c1cc(NC(=O)[C@H]2[C@H](c3cc(F)cc(Br)c3F)C2(Cl)Cl)ccc1Cl (relative stereo) [F1093, trans-5-(3-(3-bromo-2,5-difluorophenyl)-2,2-dichlorocyclopropane-1-carboxamido)-2-chloro-N-(2,4-difluorophenyl)benzamide] | 50 to 100% | 50 to 100%
6 | CC(C)(C)OC(=O)Nc1c(F)ccc(NC(=O)c2cc(NC(=O)[C@H]3[C@H](c4cc(F)cc(Br)c4F)C3(Cl)Cl)ccc2Cl)c1F (relative stereo) [F1095, trans-tert-Butyl-(3-(5-(3-(3-bromo-2,5-difluorophenyl)-2,2-dichlorocyclopropane-1-carboxamido)-2-chlorobenzamido)-2,6-difluorophenyl)carbamate] | 50 to 100% | 50 to 100%
7 | Nc1c(F)ccc(NC(=O)c2cc(NC(=O)[C@H]3[C@H](c4cc(F)cc(Br)c4F)C3(Cl)Cl)ccc2Cl)c1F (relative stereo) [F1098, trans-N-(3-Amino-2,4-difluorophenyl)-5-(3-(3-bromo-2,5-difluorophenyl)-2,2-dichlorocyclopropane-1-carboxamido)-2-chlorobenzamide] | 50 to 100% | 50 to 100%
8 | CC(=O)Nc1ccc(NC(=O)c2c(F)ccc(NC(=O)[C@H]3[C@H](c4ccc(F)c(Cl)c4)C3(Cl)Cl)c2F)cc1 (relative stereo) [F1101, trans-N-(4-Acetamidophenyl)-3-(2,2-dichloro-3-(3-chloro-4-fluorophenyl)cyclopropane-1-carboxamido)-2,6-difluorobenzamide] | 50 to 100% | 50 to 100%
9 | CC(=O)Nc1ccc(NC(=O)c2c(Cl)ccc(NC(=O)[C@H]3[C@H](c4ccc(F)c(Cl)c4)C3(Cl)Cl)c2Cl)cc1 (relative stereo) [F1102, trans-N-(4-Acetamidophenyl)-2,6-dichloro-3-(2,2-dichloro-3-(3-chloro-4-fluorophenyl)cyclopropane-1-carboxamido)benzamide] | 50 to 100% | 50 to 100%
10 | CN(C(=O)c1c(Cl)ccc(NC(=O)[C@H]2[C@H](c3ccc(F)c(Cl)c3)C2(Cl)Cl)c1Cl)c1ccc(N)cc1 (relative stereo) [F1106, trans-N-(4-Aminophenyl)-2,6-dichloro-3-(2,2-dichloro-3-(3-chloro-4-fluorophenyl)cyclopropane-1-carboxamido)-N-methylbenzamide] | 50 to 100% | 0 to 50%
11 | CC(C)(C)OC(=O)N(C(=O)OC(C)(C)C)c1c(F)ccc(NC(=O)c2c(F)ccc(NC(=O)[C@H]3[C@H](c4ccc(F)c(Cl)c4)C3(Cl)Cl)c2F)c1F (relative stereo) [F1109, trans-tert-Butyl-N-tert-butoxycarbonyl-N-[3-[[3-[[2,2-dichloro-3-(3-chloro-4-fluorophenyl)cyclopropanecarbonyl]amino]-2,6-difluorobenzoyl]amino]-2,6-difluorophenyl]carbamate] | 50 to 100% | 50 to 100%
12 | Nc1c(F)ccc(NC(=O)c2c(Cl)ccc(NC(=O)[C@H]3[C@H](c4ccc(F)c(Cl)c4)C3(Cl)Cl)c2Cl)c1F (relative stereo) [F1110, trans-N-(3-Amino-2,4-difluorophenyl)-2,6-dichloro-3-(2,2-dichloro-3-(3-chloro-4-fluorophenyl)cyclopropane-1-carboxamido)benzamide] | 50 to 100% | 50 to 100%
13 | Nc1c(F)ccc(NC(=O)c2c(F)ccc(NC(=O)[C@H]3[C@H](c4ccc(F)c(Cl)c4)C3(Cl)Cl)c2F)c1F (relative stereo) [F1111, trans-N-(3-Amino-2,4-difluorophenyl)-3-(2,2-dichloro-3-(3-chloro-4-fluorophenyl)cyclopropane-1-carboxamido)-2,6-difluorobenzamide] | 50 to 100% | 50 to 100%
14 | CC(C)(C)OC(=O)Nc1c(F)ccc(NC(=O)c2cc(NC(=O)[C@H]3[C@H](c4ccc(Br)c(C(F)(F)F)c4)C3(Cl)Cl)ccc2Cl)c1F (relative stereo) [F1115, trans-tert-Butyl-(3-(5-(3-(4-bromo-3-(trifluoromethyl)phenyl)-2,2-dichlorocyclopropane-1-carboxamido)-2-chlorobenzamido)-2,6-difluorophenyl)carbamate] | 50 to 100% | 50 to 100%
15 | O=C(Nc1cc(F)c(NC(=O)C(F)(F)F)c(F)c1)c1cc(NC(=O)[C@H]2[C@H](c3ccc(Cl)c(Cl)c3)C2(Cl)Cl)ccc1Cl (relative stereo) [F1120, trans-2-Chloro-5-(2,2-dichloro-3-(3,4-dichlorophenyl)cyclopropane-1-carboxamido)-N-(3,5-difluoro-4-(2,2,2-trifluoroacetamido)phenyl)benzamide] | 50 to 100% | 50 to 100%
16 | O=C(Nc1ccc(F)cc1NC(=O)C(F)(F)F)c1cc(NC(=O)[C@H]2[C@H](c3ccc(Cl)c(Cl)c3)C2(Cl)Cl)ccc1Cl (relative stereo) [F1121, trans-2-Chloro-5-(2,2-dichloro-3-(3,4-dichlorophenyl)cyclopropane-1-carboxamido)-N-(4-fluoro-2-(2,2,2-trifluoroacetamido)phenyl)benzamide] | 50 to 100% | 50 to 100%
